According to patent US10414811B2, “Protease-resistant lipidated GLP-1 analogs” (MEDIMMUNE LIMITED, priority 2015, dated 2019):
Like-named read-outs stand apart in the source and are kept apart here. Blank lines part the entries; values can stand above or below the compound they belong to. Numbered stars: 1 amine (or outer) side, 2 acyl side, 3 side chain; on linkers, the order of the positions; unused ones are H or OH. Square brackets hold non-standard residues; d marks the D form. Side chains are listed from the residue outwards. Peptide text beside a SMILES is read from it. * marks the point of attachment. C18 diacid = O=C(O)CCCCCCCCCCCCCCCCC(=O)*; γGlu = O=C(O)[C@H](CCC(=O)[*:2])N[*:1]; αMeF = C[C@](N)(Cc1ccccc1)C(=O)O; αMeK = C[C@](N)(CCCCN)C(=O)O; Lauroyl = CCCCCCCCCCCC(=O)*; αMeS = C[C@](N)(CO)C(=O)O; AEEA = NCCOCCOCC(=O)O; Aib = CC(C)(N)C(=O)O

Key:
Type in all cases: cell-based
[1] = target: T1, human glucose-dependent insulinotropic peptide receptor (GIPR) (Homo sapiens, UniProt P48546); test: cAMP assay, human GIPR cells
T1 construct: expressed in transfected cells
T1 sequence (P48546 22-466): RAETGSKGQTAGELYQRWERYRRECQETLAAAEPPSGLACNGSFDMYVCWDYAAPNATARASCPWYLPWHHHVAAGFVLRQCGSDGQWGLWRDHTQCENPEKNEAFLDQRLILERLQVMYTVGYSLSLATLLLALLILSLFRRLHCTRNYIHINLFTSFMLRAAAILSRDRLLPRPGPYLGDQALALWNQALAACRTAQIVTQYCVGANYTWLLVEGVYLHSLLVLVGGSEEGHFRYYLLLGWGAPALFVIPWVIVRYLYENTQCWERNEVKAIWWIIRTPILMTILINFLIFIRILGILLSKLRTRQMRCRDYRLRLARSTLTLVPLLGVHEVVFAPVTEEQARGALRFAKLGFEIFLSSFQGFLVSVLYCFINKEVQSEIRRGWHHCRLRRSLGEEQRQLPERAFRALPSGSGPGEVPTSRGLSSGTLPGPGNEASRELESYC
Outline: (§1)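 Peptide-stimulated cAMP measured by two-step HTRF after a 30 min room-temperature incubation with receptor-expressing cells (hGLP-1R, hGIPR at 1×10^5 cells/ml; hGCGR at 2×10^5 cells/ml). Duplicate dilutions; EC50 from 4-parameter logistic fit of % Delta F.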

[2] = target: T2, human glucagon receptor (GCGR) (Homo sapiens, UniProt P47871); test: cAMP assay, human GCGR cells
T2 construct: expressed in transfected cells
Outline: as §1

GLP-1R (INS1e assay) = target: T3, GLP-1R (INS1e assay) (Rattus norvegicus, UniProt P32301); test: INS1e assay, cAMP activity at GLP-1R
T3 construct: endogenous in cells; host or cells: INS-1E cells
T3 sequence (P32301 22-463): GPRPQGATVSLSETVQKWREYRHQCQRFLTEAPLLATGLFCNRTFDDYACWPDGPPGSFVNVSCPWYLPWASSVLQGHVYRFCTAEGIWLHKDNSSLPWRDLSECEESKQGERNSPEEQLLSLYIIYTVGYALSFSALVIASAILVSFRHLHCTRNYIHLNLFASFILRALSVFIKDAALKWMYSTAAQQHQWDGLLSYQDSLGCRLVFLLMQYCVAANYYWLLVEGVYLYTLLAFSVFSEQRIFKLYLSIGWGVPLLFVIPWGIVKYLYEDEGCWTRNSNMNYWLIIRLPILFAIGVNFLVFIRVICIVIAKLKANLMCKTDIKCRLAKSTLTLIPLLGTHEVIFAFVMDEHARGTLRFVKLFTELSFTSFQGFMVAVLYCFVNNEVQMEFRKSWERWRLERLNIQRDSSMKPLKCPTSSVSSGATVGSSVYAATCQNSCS
Protocol: cAMP levels are measured using a commercially available cAMP dynamic 2 HTRF kit (Cisbio, Cat #62AM4PEJ), following the two step protocol as per manufacturer's recommendations. In brief; anti-cAMP cryptate (donor fluorophore) and cAMP-d2 (acceptor fluorophore) are made up separately by diluting each 1/20 in conjugate & lysis buffer provided in the kit. 5 μL anti-cAMP cryptate is added to wells of the assay plate, and 5 μL cAMP-d2 is added to wells except non-specific binding (NSB) wells, to which conjugate and lysis buffer are added. […] EC50 values of the synthetic peptides determined in cAMP assays are then determined.

[3] = target: T4, human GLP-1 receptor (GLP-1R) (Homo sapiens, UniProt P43220); test: cAMP assay, human GLP-1R cells; conditions: bis-lipidated peptides
T4 construct: expressed in transfected cells
Outline: as §1

T4 sequence (P43220 24-463): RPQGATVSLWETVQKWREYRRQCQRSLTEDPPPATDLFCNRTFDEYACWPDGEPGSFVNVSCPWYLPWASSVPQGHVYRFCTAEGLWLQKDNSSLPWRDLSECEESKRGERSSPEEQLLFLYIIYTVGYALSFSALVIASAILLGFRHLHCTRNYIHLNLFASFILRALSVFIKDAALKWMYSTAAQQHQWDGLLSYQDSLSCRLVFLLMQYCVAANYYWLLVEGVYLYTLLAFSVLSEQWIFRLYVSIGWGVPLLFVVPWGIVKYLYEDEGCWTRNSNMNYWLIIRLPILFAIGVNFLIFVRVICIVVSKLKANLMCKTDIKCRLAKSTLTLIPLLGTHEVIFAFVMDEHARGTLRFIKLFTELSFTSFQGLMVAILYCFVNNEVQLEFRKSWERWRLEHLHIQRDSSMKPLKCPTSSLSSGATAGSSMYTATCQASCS
T2 sequence (P47871 26-477): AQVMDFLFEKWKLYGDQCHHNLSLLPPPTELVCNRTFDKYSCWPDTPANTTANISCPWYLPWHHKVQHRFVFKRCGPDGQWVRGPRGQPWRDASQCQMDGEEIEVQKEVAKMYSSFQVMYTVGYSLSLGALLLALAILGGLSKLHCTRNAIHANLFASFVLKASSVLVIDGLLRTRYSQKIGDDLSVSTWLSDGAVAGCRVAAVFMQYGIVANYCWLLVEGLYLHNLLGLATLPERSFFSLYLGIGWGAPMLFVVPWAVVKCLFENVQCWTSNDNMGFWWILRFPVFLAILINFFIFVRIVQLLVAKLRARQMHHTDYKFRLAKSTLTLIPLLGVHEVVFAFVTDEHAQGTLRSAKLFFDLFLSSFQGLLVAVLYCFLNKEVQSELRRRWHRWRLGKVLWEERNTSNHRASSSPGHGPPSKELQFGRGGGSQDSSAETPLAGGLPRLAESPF

- EC50 ([1]; tris-lipidated peptides, first replicate, read-out: Primary assay EC50 GIP-R (n1)): 20 nM
- EC50 ([2]; tris-lipidated peptides, second replicate, read-out: Primary assay EC50 Gluc-R (n2)): 20 nM
- EC50 (GLP-1R (INS1e assay); tris-lipidated peptides, mean of n1 and n2, read-out: INS1e assay EC50 Mean pM GLP-1R): 6530 pM
- EC50 (GLP-1R (INS1e assay); tris-lipidated peptides, replicate n1, read-out: INS1e assay EC50 GLP-1R n1): 9370 pM
- EC50 (GLP-1R (INS1e assay); tris-lipidated peptides, replicate n2, read-out: INS1e assay EC50 GLP-1R n2): 3690 pM
SMILES: CCCCCCCCCCCC(=O)N[C@@H](CCC(=O)NCCOCCOCC(=O)NCCOCCOCC(=O)NCCCC[C@H](NC(=O)CNC(=O)[C@H](CCC(=O)O)NC(=O)[C@H](CC(C)C)NC(=O)[C@H](CCCCNC(=O)COCCOCCNC(=O)COCCOCCNC(=O)CC[C@H](NC(=O)CCCCCCCCCCC)C(=O)O)NC(=O)[C@H](CO)NC(=O)[C@](C)(CO)NC(=O)[C@@H](NC(=O)[C@H](CC(=O)O)NC(=O)[C@H](CO)NC(=O)[C@@H](NC(=O)[C@](C)(Cc1ccccc1)NC(=O)[C@H](CO)NC(=O)CNC(=O)[C@H](CCC(=O)O)NC(=O)C(C)(C)NC(=O)[C@@H](N)Cc1c[nH]cn1)[C@@H](C)O)C(C)C)C(=O)N[C@@H](C)C(=O)N[C@@H](C)C(=O)N[C@@](C)(CCCCN)C(=O)N[C@@H](CCC(=O)O)C(=O)N[C@@H](Cc1ccccc1)C(=O)N[C@H](C(=O)N[C@@H](C)C(=O)N[C@@H](Cc1ccccc1)C(=O)N[C@@H](CCCCNC(=O)COCCOCCNC(=O)COCCOCCNC(=O)CC[C@H](NC(=O)CCCCCCCCCCC)C(=O)O)C(=O)N[C@H](C(=O)N[C@@H](CCC(=O)O)C(=O)NCC(=O)NCC(N)=O)C(C)C)[C@@H](C)CC)C(=O)O [compound 480] (H-H[Aib]EGS[αMeF]TSDV[αMeS]SK([AEEA-AEEA-γGlu-Lauroyl])LEGK([AEEA-AEEA-γGlu-Lauroyl])AA[αMeK]EFIAFK([AEEA-AEEA-γGlu-Lauroyl])VEGG-NH2)

- EC50 ([1]; cAMP assay, first determination (n1), read-out: Primary assay EC50 GIP-R (n1)): ≥ 25 nM
- EC50 ([1]; cAMP assay, second determination (n2), read-out: Primary assay EC50 GIP-R (n2)): ≥ 24.9 nM
- EC50 ([2]; cAMP assay, first determination (n1), read-out: Primary assay EC50 Gluc-R (n1)): ≥ 25 nM
- EC50 ([2]; cAMP assay, second determination (n2), read-out: Primary assay EC50 Gluc-R (n2)): ≥ 24.9 nM
- EC50 (GLP-1R (INS1e assay); mono-lipidated peptides, mean of n1 and n2, read-out: INS1e assay EC50 Mean pM GLP-1R): 1040 pM
- EC50 (GLP-1R (INS1e assay); mono-lipidated peptides, replicate n1, read-out: INS1e assay EC50 GLP-1R n1): 823 pM
- EC50 (GLP-1R (INS1e assay); mono-lipidated peptides, replicate n2, read-out: INS1e assay EC50 GLP-1R n2): 1260 pM
SMILES: CC[C@H](C)[C@H](NC(=O)[C@](C)(Cc1ccccc1)NC(=O)[C@H](CCC(=O)O)NC(=O)[C@](C)(CCCCN)NC(=O)[C@H](C)NC(=O)[C@H](C)NC(=O)[C@H](CCC(=O)O)NC(=O)[C@H](CCCCNC(=O)COCCOCCNC(=O)COCCOCCNC(=O)CC[C@H](NC(=O)CCCCCCCCCCCCCCCCC(=O)O)C(=O)O)NC(=O)[C@H](CCC(=O)O)NC(=O)[C@H](CC(C)C)NC(=O)[C@](C)(Cc1ccccc1)NC(=O)[C@H](CO)NC(=O)[C@](C)(CO)NC(=O)[C@@H](NC(=O)[C@H](CC(=O)O)NC(=O)[C@H](CO)NC(=O)[C@@H](NC(=O)[C@](C)(Cc1ccccc1)NC(=O)[C@H](CO)NC(=O)CNC(=O)[C@H](CCC(=O)O)NC(=O)C(C)(C)NC(=O)[C@@H](N)Cc1c[nH]cn1)[C@@H](C)O)C(C)C)C(=O)N[C@@H](C)C(=O)N[C@@](C)(Cc1ccccc1)C(=O)N[C@H](C(=O)N[C@H](C(=O)N[C@@](C)(CCCCN)C(=O)NCC(=O)NCC(N)=O)C(C)C)C(C)C [compound 113] (H-H[Aib]EGS[αMeF]TSDV[αMeS]S[αMeF]LEK([AEEA-AEEA-γGlu-C18 diacid])EAA[αMeK]E[αMeF]IA[αMeF]VV[αMeK]GG-NH2; N-terminus assumed)

- EC50 ([3]; mean of n1 and n2, read-out: Primary assay EC50 Mean pM GLP-1R): 8.4 pM
- EC50 ([3]; replicate n1, read-out: Primary assay EC50 GLP-1R n1): 4.36 pM
- EC50 ([3]; replicate n2, read-out: Primary assay EC50 GLP-1R n2): 12.4 pM
- EC50 (GLP-1R (INS1e assay); bis-lipidated peptides, mean of n1 and n2, read-out: INS1e assay EC50 Mean pM GLP-1R): 577 pM
- EC50 (GLP-1R (INS1e assay); bis-lipidated peptides, replicate n1, read-out: INS1e assay EC50 GLP-1R n1): 812 pM
- EC50 (GLP-1R (INS1e assay); bis-lipidated peptides, replicate n2, read-out: INS1e assay EC50 GLP-1R n2): 342 pM
SMILES: CCCCCCCCCCCC(=O)N[C@@H](CCC(=O)NCCOCCOCC(=O)NCCOCCOCC(=O)NCCCC[C@H](NC(=O)[C@H](C)NC(=O)[C@@H](NC(=O)[C@H](Cc1ccccc1)NC(=O)[C@H](CCC(=O)O)NC(=O)[C@](C)(CCCCN)NC(=O)[C@H](C)NC(=O)[C@H](C)NC(=O)[C@H](CCC(=O)O)NC(=O)CNC(=O)[C@H](CCC(=O)O)NC(=O)[C@H](CC(C)C)NC(=O)[C@H](Cc1ccc(O)cc1)NC(=O)[C@H](CO)NC(=O)[C@H](CO)NC(=O)[C@H](CCCCNC(=O)COCCOCCNC(=O)COCCOCCNC(=O)CC[C@H](NC(=O)CCCCCCCCCCC)C(=O)O)NC(=O)[C@H](CC(=O)O)NC(=O)[C@H](CO)NC(=O)[C@@H](NC(=O)[C@](C)(Cc1ccccc1)NC(=O)[C@H](CO)NC(=O)CNC(=O)[C@H](CCC(=O)O)NC(=O)C(C)(C)NC(=O)[C@@H](N)Cc1c[nH]cn1)[C@@H](C)O)[C@@H](C)CC)C(=O)N[C@H](C(=O)N[C@H](C(=O)N[C@@H](CCC(=O)O)C(=O)NCC(=O)NCC(N)=O)C(C)C)C(C)C)C(=O)O [compound 257] (H-H[Aib]EGS[αMeF]TSDK([AEEA-AEEA-γGlu-Lauroyl])SSYLEGEAA[αMeK]EFIAK([AEEA-AEEA-γGlu-Lauroyl])VVEGG-NH2)
